Reference: patent publication EP0116944B1 (priority 1983, dated 1984)
Where two headings read alike, the source gives them in different places.

Legend:
[1] = tested on: Vasopressin-induzierten Koronarspasmen; set-up: species or system Ratten; settings: in vivo; for Dauer der antianginösen Wirkung gegenüber Vasopressin: po
in vivo = settings: dog, iv
ST-Wellensenkung = settings: cited from earlier work
[2] = intraduodenal, Ratten; cited from earlier work
Hypotensivum = settings: orale Verabreichung; cited from earlier work
hypotensive Wirkung = settings: in vivo
systolischen Blutdruck = tested on: systolischen Blutdruck; set-up: species or system Hunde; settings: in vivo
[3] = tested on: Blutdruck anästhesierter Ratten; settings: in vivo

O=[N+]([O-])OC(CO)CO [2-GN, Glycerin-2-nitrat]
Dauer der antianginösen Wirkung gegenüber Vasopressin [1]: 2 to 3 h
half-life (in vivo): 126 min

OCCN(CCO)c1nc(N2CCCCC2)c2nc(N(CCO)CCO)nc(N3CCCCC3)c2n1 [Dipyridamol]
Hemmung der ST-Wellensenkung (ST-Wellensenkung; in vivo): unwirksam

O=[N+]([O-])OCC(CO[N+](=O)[O-])O[N+](=O)[O-] [GTN, Glycerintrinitrat]
Hemmung der T-Wellenerhöhung / Vasopressin-induzierten Koronarspasmen [1]: entschieden den stärksten Einfluß
Dauer der antianginösen Wirkung gegenüber Vasopressin [1]: 2 to 3 h
Zeit, nach der kein weiterer Plasmawert der Ausgangssubstanz gemessen werden konnte [2]: ≤ 5 min
Wirksamkeit als Hypotensivum (Hypotensivum): inaktiv
hypotensive Wirkung nach Vorbehandlung mit DHE (hypotensive Wirkung): herabgesetzt
Beginn der Wirkung (systolischen Blutdruck): 0,4 min
Einfluß auf den systolischen Blutdruck (systolischen Blutdruck): senkten
Dauer der hypotensiven Wirkung [3]: 14 min
Hemmung der ST-Wellensenkung (ST-Wellensenkung; in vivo): hemmte

O=[N+]([O-])O[C@H]1CO[C@H]2[C@@H]1OC[C@H]2O[N+](=O)[O-] [ISDN, Isosorbid-dinitrat]
Hemmung der ST-Wellensenkung (ST-Wellensenkung; oral, Ratten): hemmten
